Data as given in patent US10265421B2, “Hyperpolarized esters as metabolic markers in MR” (BRACCO IMAGING S.P.A., priority 2013, dated 2019).
Each block holds one compound with its values, some of them ahead of it.

Key:
rat cancer cells = assay: Concentration dependent metabolism of hyperpolarized substrates in rat cancer cells; type: cell-based; conditions: approx. 1, 3.5 and 10 mM, 10 million cells, maximum peak intensity
Excerpt: In all experiments 10 million cells were used. The experimental set-up from Example 2.b was applied. Data are shown as maximum peak intensity of either substrate or metabolite signals.

[1] = DNP conversion of hyperpolarized substrates in human blood; type: in vitro ADME; conditions: 2.5 ml human blood, approx. 5 mM substrate
Procedure: (§1) In all experiments 2.5 ml human blood or 2.5 ml rat blood was used. […] Data are presented as area under the curve of the metabolites divided by the substrate signal in the first spectrum and multiplied by 100 to obtain the unit, DNP conversion in percentage.

[2] = DNP conversion of hyperpolarized substrates in rat blood; type: in vitro ADME; conditions: 2.5 ml rat blood, approx. 5 mM substrate
Procedure: as §1

CE1 from pig's liver = assay: Carboxyl esterase activity on different ethyl esters (1H NMR); type: biochemical; conditions: 26 μmol substrate, pH 7.5, 37° C., 60 min
Procedure: The experiments were performed with commercially available CE1 from pig's liver.
The ethyl esters used as substrates are: ethyl acetoacetate (EAA); ethyl acetate (EA); ethyl butyrate (EB); ethyl pyroglutamate (EPG); ethyl pyruvate (EP); diethyl succinate (DES).
Individual samples of the substrates were all made in the following way: 26 μmol was weighted in an eppendorf tube. 550 μl deuterated phosphate buffer (200 mM, pH 7.5) was added and the substrate was brought into solution by whirl mixing. The solution was transferred to a 5 mm NMR tube and inserted in the spectrometer at 37° C. A reference experiment was acquired on the substrate solution without enzyme after which 10 μl of an esterase stock solution (37 U/ml in deuterated phosphate buffer) was added in the top of the tube. The sample was mixed and returned to the spectrometer. A series of thermal 1D 1H NMR experiments were recorded every 5 min for 60 min. The data were analyzed and presented as peak intensity of the product scaled to the peak intensity of the substrate signal in the first spectrum.

[3] = tested on: rat liver cancer cells (Morris7777); assay: In cell DNP conversion of hyperpolarized substrate in rat liver cancer cells; type: cell-based; conditions: whole Morris7777 cells, 10 million cells, 3.5 mM substrate, 37° C.
Procedure: (§2) To the solution was added a DMSO solution of gadolinium complex [[α1,α4,α7-tris[(phenylmethoxy)methyl]-1,4,7,10-tetraazacyclododecane-1,4,7,10-tetraacetate(4-)]gadolinate(1-)]hydrogen (1.1 mg of a 100 μmol/g solution). The concentration of radical and gadolinium were 17 mM and 2.3 mM respectively.
(§3) B) 30 μmol of solution A) was hyperpolarized. The sample was dissolved in 5 ml phosphate buffer (40 mM, pH 7.3). The pH after dissolution was 7.3.
(§4) A) 10 million cells (either rat liver cancer cells (Morris7777) or human liver cancer cells (HEP-G2)) were harvested and redissolved in […] phosphate buffer (PBS). The cells in suspension were transferred to a 10 mm NMR tube and placed with a connecting tubing in a 14.1 T magnet at 37° C.
(§5) A series of 30 degree pulses every 2 s (56 scans in total) was acquired. The acquisition was started just before injection of the hyperpolarized substrate.
The two substrates were co-polarized without mixing the substrates. Following dissolution in 5 ml phosphate buffer (40 mM pH 7.3) with addition of 2.5 μl NaOH to neutralize the pyruvic acid (which is thus converted into the pyruvate anion form), the substrate mixture was injected into 10 million cells in suspension. The experiment was performed as described in Example 2.b. […]

[4] = tested on: human liver cancer cells (HepG2); assay: In cell DNP conversion of hyperpolarized substrate in human liver cancer cells; type: cell-based; conditions: whole HepG2 cells, 10 million cells, 3.5 mM substrate, 37° C.
Procedure: as §2, §3, §4, §5

carboxylesterase [5] = assay: In vivo localized dynamic 13C MRS in healthy liver and liver cancer; parameters: species or system rat; conditions: 0.4 mmol/kg i.v.
Procedure: One million McA-RH7777 cells have been suspended in 0.2 mL of Dulbecco's Modified Eagle's Medium (DMEM) and injected under the hepatic capsula of the liver left lobe of anesthetized Buffalo rats.
The sample was dissolved in 5 ml TRIS buffer (40 mM, pH 7) added with EDTA 100 mg/l. The pH after dissolution was 7.5.
A total of 8 animals were used in the study. 4 rats were implanted with the tumour (i.e. tumour group) whereas the remaining animals were used as controls (i.e. liver group) in order to have a comparison between healthy and diseased tissue on the same strain. The metabolic fate of injected ethyl [1,3-^13C2]-acetoacetate was followed by means of a localised spectroscopy sequence which allows a selective acquisition of either tumour or healthy liver tissue. Acquisition started just before injecting the hyperpolarized substrate and comprised a series of 64 time-domain points sampled at a rate of 3 s. The applied flip angle was equal to 10 degrees.

[6] = non-tumor and tumor bearing mice; cited from earlier work
[7] = anesthetized rat; cited from earlier work
carboxylesterase [8] = assay: In vivo 13C CSI in rat liver with implanted Morris7777 tumor
Procedure: 4 anesthetized Buffalo rats were injected under the hepatic capsula of the liver left lobe with one million McA-RH7777 cells suspended in 0.2 mL of Dulbecco's Modified Eagle's Medium (DMEM) medium.
The sample was dissolved in 5 ml TRIS buffer (40 mM, pH 7) added with EDTA 100 mg/I. The pH after dissolution was 7.5.
Chemical Shift Imaging (CSI) maps were acquired on a approx. 8 mm coronal slice placed in the abdominal region of the rat. The in plane field of view was set to 40×55 mm^2 and the corresponding matrix size was 14×14.

carboxylesterase [9] = assay: General carboxylesterase activity in sonicated cancer cells (spectrophotometric, NA substrate); type: biochemical; conditions: liver cancer cells (rat and human) and prostate cancer cells; 1 mM substrate, 10 min, 30 degrees
Procedure: General carboxylesterase activity was determined spectrophotometrically using the carboxylesterase substrate 1-naphthyl acetate (NA) as described previously (Rudakova, 2011). Briefly, sonicated cells were incubated with 1 mM substrate in 150 mM phosphate buffer (pH 7.5), and generation of 1-naphtol was monitored at 322 nm and quantified from its extinction coefficient (2200 M−1 cm−1). The reaction is allowed to take place for 10 min at 30 degrees. […] Cells of different origin (rat hepatoma, Morris; human hepatoma, HepG2; human prostate carcinoma, PC-3; human breast carcinoma, MCF-7) were harvested and redissolved in phosphate buffer to a concentration of 10 million cells/ml. The sample composition was as follows: 923 μl phosphate buffer (150 mM pH 7.3)+77 μl NA solution (13 mM in acetone)+100 μl cells in suspension. The absorbance of the samples were compared to reference samples where acetone was added instead of substrate. The esterase activity was calculated using the extinction coefficient ε322=2200 M^−1 cm^−1.

factor by which diethyl succinate is converted faster than this substrate (CE1 from pig's liver): ten times faster converted
SMILES: CCOC(C)=O [ethyl acetate]

factor by which diethyl succinate is converted faster than this substrate (CE1 from pig's liver): ~2
SMILES: CCCC(=O)OCC [ethyl butyrate]

conversion (turnover) by CE1 (CE1 from pig's liver): no conversion at all could be measured
SMILES: CCOC(=O)C(C)=O [ethyl pyruvate, reference compound]

Continued, compound first:

SMILES: CC(=O)C(=O)O [[1-^13C]-pyruvate, reference compound]
change of metabolite signal with increasing substrate concentration (rat cancer cells): unchanged going from 3 mM to 10 mM
build-up of metabolite signal in human blood [1]: build-up of lactate is significant
build-up of metabolite signal in rat blood [2]: build-up of lactate is significant

SMILES: CCOC(=O)CCC(=O)OCC [diethyl succinate]
conversion (turnover) by CE1 (CE1 from pig's liver): overall fastest converted substrate

SMILES: CCO[13C](=O)C[13C](C)=O [ethyl [1,3-^13C2]-acetoacetate]
build-up of hyperpolarized acetoacetate anion from hydrolysis [3]: possible to follow the build-up of the product
build-up of hyperpolarized acetoacetate anion from hydrolysis [4]: possible to follow the build-up of the product
ramping up rate of metabolite signal, healthy liver with respect to cancer tissue (carboxylesterase [5]; localized spectroscopy): ≥ 2
uptake and conversion in liver cells in vivo (carboxylesterase [5]; healthy and diseased liver): taken up by both healthy and diseased liver cells and converted into its hyperpolarized metabolite
conversion in vivo [6]: rapidly converted into acetoacetate

SMILES: CCO[13C](=O)C(C)=O [ethyl [1-^13C]-pyruvate]
uptake into brain [7]: rapid and preferential

SMILES: CCOC(=O)CC(C)=O [ethyl acetoacetate]
change of metabolite signal with increasing substrate concentration (rat cancer cells): increases almost quantitatively with increasing substrate concentration
distribution of substrate signal (CSI map) (carboxylesterase [8]; Morris hepatocellular carcinoma bearing rat, 0.4 mmol/kg i.v., 20 s acquisition): mainly observed in the tumour mass
conversion in healthy liver during acquisition (carboxylesterase [8]; healthy liver, 20 s acquisition time): almost completely converted
build-up of metabolite signal in human blood [1]: no build-up of metabolite signal could be measured
carboxyl esterase activity (capacity of cells to hydrolyse substrate) (carboxylesterase [9]): up to 95 mU/million cells
factor by which diethyl succinate is converted faster than this substrate (CE1 from pig's liver): ~2
build-up of metabolite signal in rat blood [2]: conversion of ethyl acetoacetate is seen

SMILES: CCOC(=O)[C@@H]1CCC(=O)N1 [ethyl pyroglutamate]
conversion (turnover) by CE1 (CE1 from pig's liver): barely detectable

SMILES: CCOC(=O)CCC(=O)O [mono-ester]
conversion (turnover) by CE1 (CE1 from pig's liver): not a substrate for CE1
